Test results published in patent publication US8715155B2, “Embryo development and survival” (University of Tennessee Research Foundation, priority 2005, dated 2014).

Key:
[1] = test system: developmentally challenged bovine oocytes; experiment: Maturation of developmentally challenged oocytes with a PGF2α antagonist, then fertilization; type: cell-based
Protocol: In a second study, bovine oocytes were obtained from ovaries of slaughtered cows. Oocytes that were developmentally challenged (development of oocyte to blastocyst less than 20%) were included in the study. The oocytes were matured for 24 hours in a standard maturation medium that either contained the PGF2α antagonist AL-8810 (treatment group) or that lacked the PGF2α antagonist (control group) and were then fertilized. Oocytes were observed on day 3 for the presence of cleavage and on day 9 for the presence of blastocyst development. The percentage of oocytes in that underwent cleavage and that developed into blastocysts was determined.

[2] = test system: embryos placed in recipient animals; experiment: Pre-treatment of embryos in recovery and/or freezing/transfer media before embryo transfer; type: in vivo, cattle
Protocol: Approximately 100 embryo recoveries are performed on day 7 after estrus in beef and dairy cows (lactating and dry). Cows are superovulated (Folltropin) and embryos recovered, evaluated, and frozen (1.5 M Ethylene Glycol; EG) as previously reported (Schrick et al., Biol. Reprod. 49:617-621 (1993)). Half of the embryo recoveries occur utilizing 1 L of each of the following alternative media preparations: 1) Embryo recovery (flush) media (CON, n=50 recoveries; Dulbecco's PBS+1% FCS; GibcoBRL, Cat.#21300-025; Grand Island, N.Y.) or 2) Embryo recovery (flush) media+AL-8810 (TRT, n=50 recoveries; 430 nM of AL-8810).
Following filtering, embryo dishes are searched, embryos removed (placed in Vigro), and evaluated for quality and development (IETS guidelines). […]
Over a two year period, recipient animals (dairy and beef cows and heifers; n=500) have estrus synchronized utilizing GnRH/CIDR/Estrumate protocol consisting of administration of 100 ug GnRH (Cysterolin; Merial) and CIDR (intravaginal progesterone releasing device; Pfizer) insertion on day 0, CIDR removal and injection of 2 mL Estrumate (Schering-Plough Animal Health) on day 7, and estrous detection (twice daily) from days 8 through 12. […] Embryos used for ET are thawed (10 sec air thaw; 30 sec in 25° C. water bath), straw labeling (embryo ID) information recorded, and recipient ID collected. […]

[3] = test system: Pre-compacted 16- to 32-cell stage bovine embryos; experiment: Dose response study of AL-8810 on embryo development; type: cell-based; settings: 96 h
Protocol: Incubation conditions are 5.5% CO2, 7% O2, and 87.5% N2 at 38.5° C. The four groups are as follows: (1) KSOM-PVA+AL-8810 at 1000 nM, n=93 (High AL-8810 group); (2) KSOM-PVA+AL-8810 at 500 nM, n=95 (Medium AL-8810 group); (3) KSOM-PVA+AL-8810 at 250 nM, n=93 (Low AL-8810 group); and (4) KSOM-PVA with an equivalent volume of DMSO (dimethylsulfoxide) as used for the first three groups, n=95 (Control group).

[4] = test system: Pre-compacted 16- to 32-cell stage bovine embryos; settings: 1000 nM AL-8810 + 1 ng/ml PGF, 48 h culture, assessed day 8
Protocol: Pre-compacted 16- to 32-cell stage bovine embryos (day 4 post fertilization) are washed in KSOM-PVA and divided into four groups, each of which is cultured for 48 hours in KSOM-PVA containing one of the following: (1) 1000 nM AL-8810, n=95 (AL-8810 group); (2) 1 ng/ml PGF, n=91 (PGF group); (3) 1000 nM AL-8810+1 ng/ml PGF, n=90 (AL-8810+PGF group); or (4) KSOM-PVA without AL-8810 or PGF, n=84 (Control group).
Following the 48 hour culture, embryos from each group are placed in HEPES-TALP and embryonic development is assessed by a technician who is uninformed of the treatments of the embryos in each group. Embryos from each treatment group are washed in KSOM-PVA and transferred to a 4-well plate with KSOM-PVA for further culture until day 8 post fertilization, when embryonic development is again assessed.

[5] = test system: bovine cumulus-oocyte-complexes; experiment: Maturation of heat-stressed cumulus-oocyte-complexes with a PGF2α antagonist; type: cell-based; settings: COC matured at 41.0° C. for first 12 h, AL-8810 at 250, 400 or 1000 nM; FIG. 1
Protocol: In a first study, bovine cumulus-oocyte-complexes were divided into three groups. Each of the three groups were matured for 24 hours under heat-stress conditions at 41.0° C. for 12 hours, followed by 38.5° C. for the remaining 12 hours. A first group, referred to as the development control group, was matured utilizing a standard maturation medium. A second group, referred to as the diluent control group, was matured under the same conditions utilizing the same standard maturation medium to which was added a diluent DMSO (dimethyl sulfoxide). A third group, referred to as the treatment group, was matured under the same conditions utilizing the same standard maturation medium to which was added the PGF2α antagonist AL-8810 at a concentration of 250, 400, or 1000 nM. To prepare the diluent control, DMSO was added to the OMM to yield the same concentration as would be contained in the PGF2α antagonist dose being tested (0.0025, 0.004 and 0.01% v/v final concentration for the 250, 400 and 1000 nM doses, respectively). The generalized linear mixed models (GLIMMIX) procedure of SAS version 9.1 (SAS Institute; Cary, N.C.; 2003) was used to perform analyses. Data are presented as least square means±the standard error of the mean. […]

[6] = oocytes matured 24 h with AL-8810, of those that cleaved

## O=C(O)CCC/C=C\CC1C(O)CC(F)C1/C=C/C(O)C1Cc2ccccc2C1 (stereo not drawn) [AL-8810, 11β-fluoro-15-epi-15-indanyl-tetranor PGF2α]
[1]; oocytes matured 24 h with AL-8810
  deleterious or toxic effect on oocytes or developing embryos (stage and development of blastocysts): does not exert a deleterious or toxic effect
[1]; oocytes matured 24 h with AL-8810, observed day 3
  Cleaved (%): 60.4%
[1]; oocytes matured 24 h with AL-8810, observed day 9
  Blastocyst/PZ (%): 17.7%
[1]; [6]
  2-cell (%): 7.2%
  4-cell (%): 15.2%
  8 to 16-cell (%): 76.7%
[2]; AL-8810 (430 nM in flush media) in embryo recovery and/or freezing/transfer media
  pregnancy rates: increases pregnancy rates
[2]; embryos pre-treated with AL-8810 in media
  abnormalities in calves resulting from the pregnancies: No abnormalities are observed in the calves
[3]; AL-8810 at 250, 500 and 1000 nM, vs control group
  early embryonic development of pre-compacted embryos: does not decrease or increase early embryonic development
[3]; High AL-8810 group (1000 nM), vs 49.9+/-3.9% control, p<0.05
  embryonic development: 60.3%+/−3.9
[4]
  embryonic development in the presence of PGF: decreases the negative effects of PGF on embryonic development
[5]
  blastocyst development after heat stress: the effect of heat stress to reduce blastocyst development was no longer observed
